Key:
Assay in all cases: combination Emax (second highest fraction inhibited in the dose matrix, 72 h); higher = more inhibition; extreme values may be limits of the assay
[1] = system: CAL-54 (Kidney Carcinoma)
Summary of the method: (§1)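 Bliss excess equals the observed combination effect minus the expected value EA + EB − EA·EB, where EA and EB are the effects of each agent alone. Combination Emax is the second-highest inhibition within the matrix. Inhibition was scaled from CellTiter-Glo 2.0 luminescence, with 0 set by vehicle wells and 1 by blank wells, after 72 hours of two-drug dosing of cells plated in 1536-well plates.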

[2] = system: CAPAN-1 (Pancreatic Carcinoma)
Summary of the method: as §1

[3] = system: CTB-1 (B-Cell Non-Hodgkin's Lymphoma)
Summary of the method: as §1

[4] = system: EN (Endometrial Carcinoma)
Summary of the method: as §1

[5] = system: HDLM-2 (Hodgkin's Lymphoma)
Summary of the method: as §1

[6] = system: HO-1-u-1 (Oral Cavity Carcinoma)
Summary of the method: as §1

[7] = system: K5 (Thyroid Gland Carcinoma)
Summary of the method: as §1

[8] = system: KARPAS-231 (B-Cell Non-Hodgkin's Lymphoma)
Summary of the method: as §1

[9] = system: KYSE-410 (Esophageal Squamous Cell Carcinoma)
Summary of the method: as §1

[10] = system: LB771-HNC (Head and Neck Carcinoma)
Summary of the method: as §1

[11] = system: MDA-MB-468 (Breast Carcinoma)
Summary of the method: as §1

NB14 (Neuroblastoma) = system: NB14 (Neuroblastoma)
Summary of the method: as §1

NCI-H2461 (Mesothelioma) = system: NCI-H2461 (Mesothelioma)
Summary of the method: as §1

NCI-H2795 (Mesothelioma) = system: NCI-H2795 (Mesothelioma)
Summary of the method: as §1

[12] = system: RPMI-6666 (Non-Cancerous)
Summary of the method: as §1

SH-4 (Melanoma) = system: SH-4 (Melanoma)
Summary of the method: as §1

[13] = system: SU-DHL-6 (B-Cell Non-Hodgkin's Lymphoma)
Summary of the method: as §1

[14] = system: SUP-T1 (T-Lymphoblastic Leukemia)
Summary of the method: as §1

[15] = system: SW1271 (Small Cell Lung Carcinoma)
Summary of the method: as §1

[16] = system: UMC-11 (Other Solid Carcinomas)
Summary of the method: as §1

Cc1cc2ncnn2cc1Nc1ncc2c(n1)n(C1CCOCC1)c(=O)n2C [AZD7648] + O=C(c1cc(Cc2n[nH]c(=O)c3ccccc23)ccc1F)N1CCN(C(=O)C2CC2)CC1 [Olaparib] (first compound max 10 µM, 7x7, partner max 10 µM)
combination Emax [1]: 0.218 | combination Emax [2]: 0.237 | combination Emax [3]: 0.331 | combination Emax [4]: 0.301 | combination Emax [5]: 0.155 | combination Emax [6]: 0.261 | combination Emax [7]: 0.421 | combination Emax [8]: 0.269 | combination Emax [9]: 0.141 | combination Emax [10]: 0.148 | combination Emax [11]: 0.242 | combination Emax (NB14 (Neuroblastoma)): 0.508 | combination Emax (NCI-H2461 (Mesothelioma)): 0.278 | combination Emax (NCI-H2795 (Mesothelioma)): 0.421 | combination Emax [12]: 0.584 | combination Emax (SH-4 (Melanoma)): 0.179 | combination Emax [13]: 0.346 | combination Emax [14]: 0.465 | combination Emax [15]: 0.24 | combination Emax [16]: 0.244

Cc1c2c(nn1C)CSCc1cc(n(C)n1)CSc1cc(c3ccccc3c1)OCCCc1c(C(=O)O)n(C)c3c-2c(Cl)ccc13 [AZD5991] + C[C@@H](Nc1cc(F)cc(F)c1)c1cc(C(=O)N(C)C)cc2c(=O)cc(N3CCOCC3)oc12 [AZD8186] (first compound max 1 µM, 7x7, partner max 3 µM)
combination Emax [1]: 0.602 | combination Emax [2]: 0.172 | combination Emax [3]: 0.384 | combination Emax [4]: 0.558 | combination Emax [5]: 0.996 | combination Emax [6]: 0.279 | combination Emax [7]: 0.362 | combination Emax [8]: 1 | combination Emax [9]: 0.221 | combination Emax [10]: 0.486 | combination Emax [11]: 0.605 | combination Emax (NB14 (Neuroblastoma)): 0.898 | combination Emax (NCI-H2461 (Mesothelioma)): 0.363 | combination Emax (NCI-H2795 (Mesothelioma)): 0.926 | combination Emax [12]: 0.717 | combination Emax (SH-4 (Melanoma)): 0.332 | combination Emax [13]: 1 | combination Emax [14]: 0.279 | combination Emax [15]: 0.207 | combination Emax [16]: 0.32

CC1(C)CCC(CN2CCN(c3ccc(C(=O)NS(=O)(=O)c4ccc(NCC5CCOCC5)c([N+](=O)[O-])c4)c(Oc4cnc5[nH]ccc5c4)c3)CC2)=C(c2ccc(Cl)cc2)C1 [Venetoclax] + C1CN(CCC1(C(=O)N[C@@H](CCO)C2=CC=C(C=C2)Cl)N)C3=NC=NC4=C3C=CN4 [Capivasertib] (first compound max 1 µM, 7x7, partner max 3 µM)
combination Emax [1]: 0.325 | combination Emax [2]: 0.184 | combination Emax [3]: 0.429 | combination Emax [4]: 0.554 | combination Emax [5]: 0.514 | combination Emax [6]: 0.719 | combination Emax [7]: 0.546 | combination Emax [8]: 0.796 | combination Emax [9]: 0.203 | combination Emax [10]: 0.248 | combination Emax [11]: 0.511 | combination Emax (NB14 (Neuroblastoma)): 0.95 | combination Emax (NCI-H2461 (Mesothelioma)): 0.528 | combination Emax (NCI-H2795 (Mesothelioma)): 0.375 | combination Emax [12]: 0.963 | combination Emax (SH-4 (Melanoma)): 0.208 | combination Emax [13]: 0.995 | combination Emax [14]: 0.757 | combination Emax [15]: 0.262 | combination Emax [16]: 0.196

CC1(C)CCC(CN2CCN(c3ccc(C(=O)NS(=O)(=O)c4ccc(NCC5CCOCC5)c([N+](=O)[O-])c4)c(Oc4cnc5[nH]ccc5c4)c3)CC2)=C(c2ccc(Cl)cc2)C1 [Venetoclax] + C=CCn1c(=O)c2cnc(Nc3ccc(N4CCN(C)CC4)cc3)nc2n1-c1cccc(C(C)(C)O)n1 [AZD1775] (first compound max 1 µM, partner max 1 µM)
combination Emax [1]: 0.795 | combination Emax [2]: 0.45 | combination Emax [3]: 0.897 | combination Emax [4]: 0.653 | combination Emax [5]: 0.88 | combination Emax [6]: 0.949 | combination Emax [7]: 0.523 | combination Emax [8]: 1 | combination Emax [9]: 0.422 | combination Emax [10]: 0.518 | combination Emax [11]: 0.521 | combination Emax (NB14 (Neuroblastoma)): 1 | combination Emax (NCI-H2461 (Mesothelioma)): 0.731 | combination Emax (NCI-H2795 (Mesothelioma)): 0.658 | combination Emax [12]: 0.996 | combination Emax (SH-4 (Melanoma)): 0.573 | combination Emax [13]: 0.941 | combination Emax [14]: 0.812 | combination Emax [15]: 0.552 | combination Emax [16]: 0.487

COc1cc2c(cc1OCCCCCOc1cc3c(cc1OC)C(=O)N1C=C(C)C[C@H]1C=N3)N=C[C@@H]1CC(C)=CN1C2=O [SG3199] + O=C(c1cc(Cc2n[nH]c(=O)c3ccccc23)ccc1F)N1CCN(C(=O)C2CC2)CC1 [Olaparib] (first compound max 0.001 µM, 7x7, partner max 10 µM)
combination Emax [1]: 0.121 | combination Emax [2]: 0.198 | combination Emax [3]: 0.28 | combination Emax [4]: 0.148 | combination Emax [5]: 0.167 | combination Emax [6]: 0.15 | combination Emax [7]: 0.196 | combination Emax [8]: 0.262 | combination Emax [9]: 0.136 | combination Emax [10]: 0.181 | combination Emax [11]: 0.231 | combination Emax (NB14 (Neuroblastoma)): 0.42 | combination Emax (NCI-H2461 (Mesothelioma)): 0.11 | combination Emax (NCI-H2795 (Mesothelioma)): 0.269 | combination Emax [12]: 0.501 | combination Emax (SH-4 (Melanoma)): 0.181 | combination Emax [13]: 0.171 | combination Emax [14]: 0.442 | combination Emax [15]: 0.18 | combination Emax [16]: 0.168

COc1cccc(OCCCN)c1-c1cc(Nc2cnc(C#N)cn2)n[nH]1 [Prexasertib] + C[C@@H]1COCCN1C2=NC(=NC(=C2)C3(CC3)[S@](=N)(=O)C)C4=C5C=CNC5=NC=C4 [AZD6738] (first compound max 1 µM, 7x7, partner max 10 µM)
combination Emax [1]: 0.84 | combination Emax [2]: 0.527 | combination Emax [3]: 0.899 | combination Emax [4]: 0.726 | combination Emax [5]: 0.528 | combination Emax [6]: 0.923 | combination Emax [7]: 0.7 | combination Emax [8]: 0.979 | combination Emax [9]: 0.532 | combination Emax [10]: 0.61 | combination Emax [11]: 0.547 | combination Emax (NB14 (Neuroblastoma)): 1 | combination Emax (NCI-H2461 (Mesothelioma)): 0.721 | combination Emax (NCI-H2795 (Mesothelioma)): 0.765 | combination Emax [12]: 0.955 | combination Emax (SH-4 (Melanoma)): 0.63 | combination Emax [13]: 0.621 | combination Emax [14]: 0.808 | combination Emax [15]: 0.719 | combination Emax [16]: 0.866
